Measured values from patent US11466013B2 (Betta Pharmaceuticals Co., LTD, priority 2018, dated 2022).

How the values were obtained:
ERK2 = ERK2 (Homo sapiens, UniProt P28482); assay: Kinase assay (Caliper, FAM-labeled peptide), ERK2; format: biochemical
Method: (§1) The compound was diluted to the desired concentration with DMSO, transferred 100 μL to a 96-well plate, and performed a gradient dilution 10 μL of compound from each well was taken and mixed with 90 μL of kinase buffer, and then transferred 5 μL from each well to a 384-well plate. Kinase and FAM-labeled peptide and ATP were added to 1× kinase alkaline buffer to obtain 2.5× enzyme solution and 2.5× peptide solution, 10 μL of 2.5× enzyme solution was added to the 384-well assay plate. After incubating for 10 minutes at room temperature, 10 μL of 2.5× peptide solution was added to the 384-well plate. After reacting for a specific time at […], 25 μL of termination buffer was added to stop reaction. After reading the collected data on Caliper, the data was converted to inhibition percentage. Inhibition percentage=(maximum value−conversion value)/(maximum value−minimum value)*100.
(§2) The “maximum” is the DMSO control, the “minimum” indicates the low control.
(§3) Graphpad Prism software was used to perform curve fitting and obtain IC50 value.

COLO205 cells = assay: Cell proliferation assay (COLO205), Cell-titer Glo; format: cell-based
Method: COLO205 cells were spread into a 96-well plate at 135 μL/well at 2000 cells. After incubating overnight, compound solutions of gradient concentration was prepared, and added 15 μL of DMSO solution of the test compound of each concentration to the cells of each well. The final concentration of the compound was 30000, 10000, 3333.3, 1111.1, 370.4, 123.5, 41.2, 13.7, 4.6, 0 nM (the final concentration of DMSO was 0.5%). 5% CO2 was incubated for 120 h at 37° C. 50 μL of Cell-titer Glo working solution was added to each well, shaked and mixed, and incubated at room temperature for 10 minutes. The multi-functional microplate reader read the luminescence value, and converted the luminescence value reading into inhibition percentage. Inhibition percentage=(maximum value−reading)/(maximum value−minimum value)*100.
The “maximum value” was the DMSO control, the “minimum value” indicates the cell-free control group.
as §3

ERK1 = ERK1 (Homo sapiens, UniProt P27361); assay: Kinase assay (Caliper, FAM-labeled peptide), ERK1; format: biochemical
Chain of ERK1 (P27361 whole entry): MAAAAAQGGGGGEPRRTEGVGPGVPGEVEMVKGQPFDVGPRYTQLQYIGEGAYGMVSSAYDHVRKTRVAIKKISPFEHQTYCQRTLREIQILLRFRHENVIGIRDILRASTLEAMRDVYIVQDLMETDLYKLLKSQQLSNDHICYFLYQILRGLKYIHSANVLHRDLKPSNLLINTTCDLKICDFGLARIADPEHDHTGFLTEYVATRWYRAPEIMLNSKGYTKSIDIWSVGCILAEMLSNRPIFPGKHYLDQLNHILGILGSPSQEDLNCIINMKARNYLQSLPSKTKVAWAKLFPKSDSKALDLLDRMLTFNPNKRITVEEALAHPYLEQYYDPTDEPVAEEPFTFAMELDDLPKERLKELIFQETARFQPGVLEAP
Method: as §1, §2, §3

[1] = Homo sapiens, COLO 205, 120 h incubation

Chain of ERK2 (P28482 whole entry): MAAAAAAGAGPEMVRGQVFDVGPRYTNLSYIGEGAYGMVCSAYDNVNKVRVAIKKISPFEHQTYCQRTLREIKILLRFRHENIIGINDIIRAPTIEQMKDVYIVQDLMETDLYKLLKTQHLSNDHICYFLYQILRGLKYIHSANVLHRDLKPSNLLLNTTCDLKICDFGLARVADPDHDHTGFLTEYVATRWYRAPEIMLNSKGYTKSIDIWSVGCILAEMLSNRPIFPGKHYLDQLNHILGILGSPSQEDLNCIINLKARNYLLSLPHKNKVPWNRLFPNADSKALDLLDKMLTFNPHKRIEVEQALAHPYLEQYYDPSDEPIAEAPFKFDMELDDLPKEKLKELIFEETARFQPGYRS

| Structure (SMILES) | IC50 (ERK2) | IC50 (COLO205 cells; [1]) | IC50 (ERK1) | IC50 (COLO205 cells; 120 h incubation) |
| --- | --- | --- | --- | --- |
| CC(C)Nc1cc(-c2cnc(C(=O)NCc3cc(F)ccc3CO)s2)c(Cl)cn1 [Example 2, 5-(5-Chloro-2-(isopropylamino)pyridin-4-yl)-N-(5-fluoro-2-(hydroxymethyl)benzyl)thiazole-2-formamide] | 0.9 nM | 77.5 nM | 1 nM | – |
| CC(C)Nc1cc(-c2cc3n(c2)CC2(COC2)CN(Cc2cc(F)ccc2CO)C3=O)c(Cl)cn1 [Example 10, 8′-(5-chloro-2-(isopropylamino)pyridin-4-yl)-2′-(5-fluoro-2-(hydroxymethyl)benzyl)-2′,3′-dihydro-1′h,5′h-spiro[oxacyclobutane-3,4′-pyrrolo[1,2-a][1,4]diazepine]-1′-one] | 0.87 nM | 16.7 nM | 0.89 nM | – |
| CC(C)Nc1cc(-c2cc3n(c2)CCCN(Cc2ccccc2CO)C3=O)c(Cl)cn1 [Example 16, 8-(5-chloro-2-(isopropylamino)pyridin-4-yl)-2-(2-(hydroxylmethyl)benzyl)-2,3,4,5-tetrahydro-1h-pyrrolo [1,2-a][1,4]diazepine-1-one] | 0.6 nM | 56 nM | 0.9 nM | – |
| CC(C)Nc1cc(-c2cc3n(c2)CC2(COC2)CN(Cc2cc(F)c(F)cc2CO)C3=O)c(Cl)cn1 [Example 17] | 0.4 nM | 25 nM | 0.47 nM | – |
| COC[C@H]1Cn2cc(-c3cc(Nc4c(F)cnn4C)ncc3Cl)cc2C(=O)N1Cc1cc(F)ccc1CO [Example 51, (R)-7-(5-chloro-2-((4-fluoro-1-methyl-1H-pyrazol-5-yl)amino)pyridin-4-yl)-2-(5-fluoro-2-(hydroxymethyl)benzyl)-3-(methoxymethyl)-3,4-dihydropyrrolo[1,2-a]pyrazine-1(2H)-ketone] | – | 24.4 nM | – | – |
| COCOC[C@H]1Cn2cc(-c3cc(Nc4ccnn4C)ncc3Cl)cc2C(=O)N1Cc1cc(F)ccc1CO [Example 53, (R)-7-(5-chloro-2-((1-methyl-1H-pyrazol-5-yl)amino)pyridin-4-yl)-2-(5-fluoro-2-(hydroxymethyl)benzyl)-3-((methoxymethoxy)methyl)-3,4-dihydropyrrolo[1,2-a]pyrazine-1(2H)-ketone] | – | 3.9 nM | – | – |
| COC[C@H]1Cn2cc(-c3cc(Nc4cnn(C)c4)ncc3Cl)cc2C(=O)N1Cc1cc(F)ccc1CO [Example 88, (R)-7-(5-chloro-2-((1-methyl-1h-pyrazole-4-yl)amino)pyridine-4-yl)-2-(5-fluoro-2-(hydroxymethyl)benzyl)-3-(methoxymethyl)-3,4-dihydropyrrolo[1,2-a] pyrazine-1(2H)-one] | 1 nM | 28.8 nM | – | – |
| COC[C@H]1Cn2cc(-c3cc(Nc4cn(C)nc4C)ncc3Cl)cc2C(=O)N1Cc1cc(F)ccc1CO [Example 89, (R)-7-(5-chloro-2-((1,3-dimethyl-1h-pyrazole-4-yl)amino)pyridine-4-yl)-2-(5-fluoro-2-(hydroxymethyl)benzyl)-3-(methoxymethyl)-3,4-dihydropyrrolo[1,2-a] pyrazin-1(2H)-one] | 1.1 nM | 12 nM | – | – |
| COC[C@H]1Cn2cc(-c3cc(Nc4cc(C)nn4C)ncc3Cl)cc2C(=O)N1Cc1cc(F)ccc1CO [Example 96, (R)-7-(5-chloro-2-((1,3-dimethyl-1h-pyrazole-5-yl)amino)pyridine-4-yl)-2-(5-fluoro-2-(hydroxymethyl)benzyl)-3-(methoxymethyl)-3,4-dihydropyrrolo[1,2-a] pyrazine-1(2H)-one] | 1.8 nM | 11 nM | – | – |
| Cc1cnc(Nc2cccc(C)c2C)nc1-c1cc2n(c1)CCN(Cc1cc(F)ccc1CO)C2=O [Example 136, 7-(2-((2,3-dimethylphenyl)amino)-5-methylpyrimidin-4-yl)-2-(5-fluoro-2-(hydroxymethyl)benzyl)-3,4-dihydropyrrolo[1,2-a] pyrazine-1(2H)-one] | 0.4 nM | – | 0.9 nM | – |
| Cn1nccc1Nc1ncc(C(F)(F)F)c(-c2cc3n(c2)CCN(Cc2cc(F)ccc2CO)C3=O)n1 [Example 164, 2-(5-fluoro-2-(hydroxymethyl)benzyl)-7-(2-((1-methyl-1h-pyrazole-5-yl)amino)-5-(trifluoromethyl)pyrimidin-4-yl)-3,4-dihydropyrrolo[1,2-a] pyrazine-1(2H)-one] | 0.66 nM | 28.9 nM | – | – |
| CC(C)Nc1cc(-c2cc3n(c2)CCN(C(CO)c2cccc(C(F)(F)F)c2)C3=O)c(Cl)cn1 (stereo not drawn) [Example D1, reference compound] | – | – | – | 7330 nM |
| CC(C)Nc1cc(-c2cnn(C(=O)N[C@H](CO)c3cccc(Cl)c3)c2)c(Cl)cn1 [Example D2, (S)-4-(5-chloro-2-(isopropylamino)pyridin-4-yl)-N′-(1-(3-chlorophenyl)-2-hydroxyethyl)-1H-pyrazole-1-carboxamide, reference compound] | – | – | – | 12200 nM |
| Cc1cnc(Nc2ccnn2C)nc1-c1c[nH]c(C(=O)NCc2cccc(F)c2)c1 [Example D4, N-(3-fluorobenzyl)-4-(5-methyl-2-((1-methyl-1h-pyrazole-5-yl)amino)pyrimidin-4-yl)-1h-pyrrole-2-formamide, reference compound] | – | 252 nM | – | – |
| Cc1cnc(Nc2ccnn2C)nc1-c1cc2n(c1)CCN(Cc1cccc(F)c1)C2=O [Example D5, 2-(3-fluorobenzyl)-7-(5-methyl-2-((1-methyl-1h-pyrazole-5-yl)amino)pyrimidin-4-yl)-3,4-dihydropyrrolo[1,2-a] pyrazine-1(2H)-one, reference compound] | – | 93.7 nM | – | – |
| CC(C)Nc1cc(-c2cc3n(c2)CCN(Cc2cccc(F)c2)C3=O)c(Cl)cn1 [Example D8, 7-(5-chloro-2-(isopropylamino)pyridin-4-yl)-2-(3-fluorobenzyl)-3,4-dihydropyrrolo[1,2-a] pyrazine-1(2H)-one, reference compound] | – | 1630 nM | – | – |

Further lines, with some results ahead:

| IC50 (ERK2) | IC50 (COLO205 cells; [1]) | IC50 (ERK1) | Structure (SMILES) | IC50 (COLO205 cells; 120 h incubation) |
| --- | --- | --- | --- | --- |
| 0.5 nM | 9 nM | 0.8 nM | CC(C)Nc1cc(-c2cc3n(c2)CC2(COC2)CN(Cc2ccccc2CO)C3=O)c(Cl)cn1 [Example 6, 8′-(5-Chloro-2-(isopropylamino)pyridin-4-yl)-2′-(2-(hydroxymethyl)benzyl)-2′,3-dihydro-1′H,5′H-spiro[oxetane-3,4′-pyrrolo[1,2-a][1,4]diazepine]-1′-one] | – |
| 1.4 nM | 36.1 nM | 1.3 nM | CC(C)Nc1cc(-c2cc3n(n2)CC(CO)(CCl)CN(Cc2ccccc2CO)C3=O)c(Cl)cn1 (stereo not drawn) [Example 8, 2-(5-Chloro-2-(isopropylamino)pyridin-4-yl)-7-(chloromethyl)-7-(hydroxymethyl)-5-(2-(hydroxymethyl)benzyl)-5,6,7,8-tetrahydro-4H-pyrazolo[1,5-a][1,4]diazepine-4-one] | – |
| 0.89 nM | 50.8 nM | 0.74 nM | CC(C)Nc1cc(-c2cc3n(c2)CC2(COC2)CN(Cc2ccc(F)cc2CO)C3=O)c(Cl)cn1 [Example 13] | – |
| 0.7 nM | – | 1.6 nM | Cc1cnc(Nc2cccc3c2OCCO3)nc1-c1cc2n(c1)CCN(Cc1cc(F)ccc1CO)C2=O [Example 135, 7-(2-((2,3-dihydrobenzo[b][1,4]dioxane-5-yl)amino)-5-methylpyrimidin-4-yl)-2-(5-fluoro-2-(hydroxymethyl)benzyl)-3,4-dihydropyrrolo[1,2-a] pyrazine-1(2H)-one] | – |
| 0.6 nM | – | 2.7 nM | Cc1cnc(Nc2ccccc2)nc1-c1cc2n(c1)CCN(Cc1cc(F)ccc1CO)C2=O [Example 137, 2-(5-fluoro-2-(hydroxymethyl)benzyl)-7-(5-methyl-2-(phenylamino)pyrimidin-4-yl)-3,4-dihydropyrrolo[1,2-a] pyrazine-1(2H)-one] | – |
| 1.1 nM | – | 1.3 nM | Cc1cnc(Nc2cccc3cnn(C)c23)nc1-c1cc2n(c1)CCN(Cc1cc(F)ccc1CO)C2=O [Example 140, 2-(5-fluoro-2-(hydroxymethyl)benzyl)-7-(5-methyl-2-((1-methyl-1h-indazole-7-yl)amino)pyrimidin-4-yl)-3,4-dihydropylrolo[1,2-a] pyrazine-1(2H)-one] | – |
| 0.87 nM | – | 0.93 nM | Cc1cnc(Nc2cccc3c2cnn3C)nc1-c1cc2n(c1)CCN(Cc1cc(F)ccc1CO)C2=O [Example 141, 2-(5-fluoro-2-(hydroxymethyl)benzyl)-7-(5-methyl-2-((1-methyl-1h-indazole-4-yl)amino)pyrimidin-4-yl)-3,4-dihydropyrrolo[1,2-a] pyrazine-1(2H)-one] | – |
| 1.7 nM | – | 1.9 nM | Cc1cnc(Nc2ccc(OC(C)C)nc2)nc1-c1cc2n(c1)CCN(Cc1cc(F)ccc1CO)C2=O [Example 159, 2-(5-fluoro-2-(hydroxymethyl)benzyl)-7-(2-((6-isopropoxypyridin-3-yl)amino) 5-methylpyrimidin-4-yl)-3,4-dihydropyrrolo[1,2-a] pyrazine-1(2H)-one] | – |
